Data: patent publication US20200255492A1, “LEPTIN PEPTIDES AND THEIR USE FOR TREATING NEUROLOGICAL DISORDERS” (UNIVERSITY OF DUNDEE, priority 2017, published 2020)

What was measured:
[1] = system: GluA1 surface expression in cultured hippocampal neurons; test: Surface labelling of AMPA receptor subunit GluA1 (immunocytochemistry); type: cell-based, Sprague Dawley rats; settings: for GluA1 surface expression, agent alone (PTEN study): bpV 50 nM, 30 min; for GluA1 surface expression, hexamer study: 10 nM, 15 min
[2] = system: p-Tau in hippocampal neurons; test: Immunocytochemistry of phosphorylated tau and p-tau/PSD-95 co-localization; type: cell-based, Sprague-Dawley rats; settings: for % co-localization of p-Tau and PSD-95 in Aβ1-42-treated neurons / p-Tau levels in Aβ1-42-treated neurons: Aβ1-42 1 μM plus leptin 10 nM or leptin(116-130)
Experimental: Hippocampal cultures were prepared as previously (Moult et al, 2010). Neonatal Sprague-Dawley rats (1-3 d old) were […] killed by cervical dislocation in accordance with the UK Animals (Scientific Procedures Act) 1986 legislation. Hippocampi were removed, and after washing in HEPES-buffered saline comprising (mM) 135 NaCl; 5 KCl; 1 CaCl2; 1 MgCl2; 10 HEPES; and 25 D-glucose at […], were treated with papain (1.5 mg ml21; Sigma-Aldrich) for 20 min at 37° C. Dissociated cells were plated onto sterile dishes (35 mm diameter; Greiner Bio-One, Kremsmun-ster, Austria) treated with poly-D-lysine (20 μg ml^−1; 1-2 h). Cultures were maintained in serum replacement medium (SR2; Sigma-Aldrich) in a humidified atmosphere of 5% CO2 and […] at 37° C. for up to 2 wk.
Phosphorylated tau was labelled with primary antibody rabbit anti-tau (Ab-396) polyclonal antibody (1:500, Gen Script) corresponding to phosphorylation site of serine 396 (Y-K-S^P-P-V). To visualise p-tau labelling, neurons were then incubated for 30 min with Alexa fluor555 donkey anti-rabbit IgG secondary antibody (1:250, Thermo Fisher Scientific). For synaptic localisation of p-tau, a secondary primary antibody was then added to compare p-tau localization relative to the synaptic marker, PSD95 (mouse anti-PSD-95, 1:500, Thermo Fisher Scientific) for 30 min. PSD-95 labelling was visualized by incubating with a goat anti-mouse Alexa Fluor […] antibody (1:500; Thermo Fisher Scientific) for 30 min.
A Zeiss LSM510 confocal microscope was used for image acquisition and analysis. Images were obtained using a 10-s scan speed in single tracking mode or multi-tracking mode for dual labelling experiments. The intensity of immunostaining was measured off-line using Lasersharp software (Zeiss Lasersharp), whereby analysis lines of 50 μm length were drawn along randomly selected dendritic regions. All data were obtained from at least three different cultures from different animals. Imaging conditions including illumination intensity and photomultiplier gains were kept constant between treatments for each experiment. In addition, data were normalised relative to the mean fluorescence intensity obtained from control neurons. For synaptic co-localisation experiments, tau and PSD-95 positive immunostaining were compared. The number of tau-positive sites that co-localized with PSD-95 positive sites were counted and expressed as a percentage of total positive sites (peaks of intensity).

[3] = system: GluA1 surface expression in cultured hippocampal neurons; test: Surface labelling of AMPA receptor subunit GluA1 (immunocytochemistry); type: cell-based, Sprague Dawley rats; settings: for GluA1 surface expression, low concentration alone: 10 nM; for surface GluA1 expression: 50 nM, 15 min; for GluA1 staining in the presence of bpV: bpV plus leptin or leptin (116-130); for GluA1 surface expression in the presence of Aβ1-42: leptin peptide 10 nM plus Aβ1-42
Experimental: Hippocampal cultures were prepared from neonatal Sprague Dawley rats as before (O'Malley et al. 2007). Briefly, neonatal Sprague Dawley rats (1-3 days old) were killed by cervical dislocation in accordance with Schedule 1 of the United Kingdom Government Animals (Scientific Procedures) Act, 1986 and the hippocampi removed. After washing in HEPES buffered saline (HBS) comprising (mM): NaCl 135; KCl 5; CaCl2 1; MgCl2 1; HEPES 10; D-glucose 25 at pH 7.4; cells were treated with protease Type X and Type XIV (0.5 mg/ml; Sigma) for 25 min at room temperature. Dissociated cells were plated onto sterile dishes (Falcon 3001) treated with poly-1-lysine (20 μg/ml; 1-2 h) and maintained in MEM with serum replacement-2 (Sigma) in a humidified atmosphere of 5% CO2 and […] at 37° C. for up to 3 weeks.
To monitor GluA1 surface expression, immunocytochemistry was performed on hippocampal cultures (7-14 DIV) as before (Moult et al. 2010). Neurons were treated with agents for 20 min at room temperature (20-22° C.) before incubation with an antibody against an N-terminal region of GluA1 (sheep anti-GluR1; in house antibody against synthetic peptide (RTSDSRDHTRVDWKR) corresponding to 253-267 residues of GluR1; 1:100; Moult et al. 2010) at 4° C. Neurons were then fixed with 4% paraformaldehyde (5 min) before adding an appropriate fluorescently labelled secondary.
Trafficking of AMPA receptors to and away from synapses is crucial for various forms of activity-dependent synaptic plasticity (Collingridge et al. 2004). Our studies indicate that leptin regulates AMPA receptor trafficking as leptin promotes trafficking of GluA1 to hippocampal synapses (Moult et al. 2010). Moreover the ability of leptin to induce LTP in adult hippocampus requires the delivery of GluA1 to synapses by leptin (Moult et al. 2010). Thus, to assess if the leptin fragments also influence AMPA receptor trafficking processes, the surface expression of GluA1 was assayed in cultured hippocampal neurons (Moult et al. 2010). In agreement with previous studies, application of leptin (50 nM; 15 min) increased surface GluA1 expression to 184±7%; (n=36; P<0.001; FIG. 2C,D) compared with control hippocampal neurons. Similarly GluA1 surface expression was elevated (to 160±6% of control; n=36; P<0.001) after exposure to 50 nM leptin (116-130; FIG. 2C,D), whereas GluA1 surface expression (98±4% of control; n=36; P>0.05) was not altered after treatment with 50 nM leptin (22-56).

Row | Substance | GluA1 surface expression, agent alone (PTEN study) [1] | % co-localization of p-Tau and PSD-95 in Aβ1-42-treated neurons [2] | p-Tau levels in Aβ1-42-treated neurons [2] | GluA1 surface expression, low concentration alone [3] | surface GluA1 expression [3] | GluA1 staining in the presence of bpV [3] | GluA1 surface expression in the presence of Aβ1-42 [3] | GluA1 surface expression, hexamer study [1] | further results
1 | leptin: the metabolic hormone leptin, whole (full length) leptin molecule; human leptin from Sigma in SH-SY5Y work | 140±7.2 % of control | prevents Aβ1-42-driven tau phosphorylation and its targeting to synapses | prevents Aβ1-42-driven tau phosphorylation | 113±7 % of control | 184±7 % of control | 131±6.6 % of control | 101±4 % of control | – | –
2 | CSLPQT (listed as Mus musculus) [leptin (117-122)] | – | – | – | – | – | – | – | 167±10 % of control | –
3 | SCSLPQ (listed as Mus musculus) [leptin (116-121)] | – | – | – | – | – | – | – | 146±9 % of control | –
4 | leptin (22-56): leptin fragment amino acids 22-56 (Bachem), comparison fragment (VPIQKVQDDTKTLIKTIVTRINDISHTQSVSSKQK; UniProt P41159 22-56, looked up, fragment) [reference compound] | – | – | – | no significant effect on GluA1 trafficking per se | 98±4 % of control | – | 51±2 % of control | – | –
5 | SCSLPQTSGLQKPES (listed as Mus musculus) [leptin (116-130)] | 167±10 % of control | prevents Aβ1-42-dependent phosphorylation of tau and it trafficking to synapses | prevents Aβ1-42-dependent phosphorylation of tau | – | 160±6 % of control | 148±8.1 % of control | 97±4 % of control | increased GluA1 surface labelling | –
6 | Aβ1-42: amyloid beta 1-42, toxin used in the AD models [reference compound] | – | – | – | – | – | – | – | – | p-Tau staining, Aβ1-42 alone ([2]; 1 μM): increases phosphorylation of tau; synaptic levels of p-Tau (p-Tau/PSD-95), Aβ1-42 alone ([2]; 1 μM): synaptic levels of p-Tau are increased; GluA1 surface expression, Aβ1-42 alone ([3]; 500 nM, 20 min, control Aβ42-1-treated neurons): 70±2 % of control
